The source of these data is US20190142835A1, “INHIBITION OF AUTOPHAGY USING PHOSPHOLIPASE A2 INHIBITORS” (OREGON HEALTH & SCIENCE UNIVERSITY, priority 2017, published 2019).

Experiment [1] concerns human RCC and MPN cell lines. The experiment can be described thus: Suppression of JAK and STAT3 phosphorylation. It counts as cell-based. Conditions: multiple human RCC and MPN cell lines. As for the experimental part:
Cells were plated in 6 well dishes and treated the following day with the indicated agents. Treatments were for 24 hours, after which cells were washed with ice cold PBS and lysed with RIPA buffer (Sigma). Phosphatase inhibitor cocktail set II and protease inhibitor cocktail set III (EMD Millipore) were added at the time of lysis. Lysates were centrifuged at 15,000 g×10 min at 4 degrees C. Protein concentrations were calculated based on a BCA assay (Thermo Scientific) generated standard curve. Proteins were resolved using the NuPAGE Novex Mini Gel system on 4% to 12% Bis-Tris Gels (Invitrogen). For western blotting, equal amounts of cell lysates (15-20 μg of protein) were resolved with SDSPAGE, and transferred to membranes. The membrane was probed with primary antibodies, washed, and then incubated with corresponding fluorescent secondary antibodies and washed. The fluorescent signal was captured using LI-COR (Lincoln, Nebr.) Odyssey Imaging System, and fluorescent intensity was quantified using the Odyssey software where indicated. The following antibodies were used for Western blots: p-S6 (S240/244), S6, LC3B, p-Akt(S473), p-Akt(T308), Akt, cleaved caspase3 (Cell Signaling Technologies). p-Stat3 (Y705), Stat3 and β-actin (AC15) (Abcam). Ki67 (Dako) and cleaved caspase3 (Cell Signaling Technologies) were used for immunohistochemistry. […] BX795 and GDC0941 were purchased from Sigma.

The subject of experiment [2] is Atg5+/+ murine embryonic fibroblasts. Briefly: Lipid droplet number in Atg5+/+ MEFs. In kind it is cell-based, mouse. Conditions: 24 hr. As for the experimental part: Cells were grown on coverslips then treated with drug for 24 hours. Cells were fixed in 4% paraformaldehyde for 15 min, rinsed with PBS. Cells were washed with a 1% saponin solution for 15 min at room temperature then washed several times in PBS to remove detergent. Cells were then incubated in Bodipy (ThermoFisher #D3922) at a final concentration of 1 uM for 10 min. Bodipy was removed and slides were rinsed with PBS then air dried and mounted on slides using Dako mounting media with Dapi.

Experiment [3] has as its system MPN patients. As to conditions: human, in vivo; cited from earlier work.
The test system of experiment [4] is ACHN cells. Briefly: Cellular respiration (XF96 Seahorse, ECAR and OCR). Conditions: XF-96 Extracellular Flux Analyzer. In kind it is cell-based, human. As for the experimental part: Oxygen consumption and extracellular acidification rates were carried out in a XF96 Seahorse Analyzer (Seahorse Bioscience, Billerica, Mass., USA). Cells were plated in the wells of 96-well plates (8×10^3 cells/well; XF96 plates, Seahorse Bioscience, North Billerica, Mass.) and incubated at 37° C. overnight. The next day, cells were treated with indicated drugs for 24 hours and then the medium was changed to XF Assay Medium and loaded with glucose, oligomycin, and 2-DG, respectively, as manufacture's recommendation.

Experiment [5] relates to patient-derived RCC organotypic cultures. Briefly: Patient tumor ex vivo organotypic culture. It counts as cell-based, human. As to conditions: 24 hours. As for the experimental part:
Tumor tissue samples were collected at the time of surgical removal for consented patients and transported in IMEM+FBS+PS. Tissue was sliced into thin sections using a surgical knife. Sections were cultured on an organotypic insert (EMD#PICMORG50) for 24 hours in IMEM+10% FBS+1% PS+50 ug/ml holo-transferrin with drug. A section of each tumor was immediately fixed in 10% buffered formalin to confirm tissue viability. After culture, treated tissue sections were fixed in 10% buffered formalin and embedded in paraffin. Paraffin embedded tumors were evaluated for morphology (H&E) and immunofluorescent signaling.
H&E slides of formalin fixed, paraffin embedded tissue was used to assess morphological integrity of tumor samples. Once integrity was confirmed, immunofluorescent analysis was performed for p-S6 (1:500 CST), p-AKT (1:200 CST) and LC3B (1:250 CST). Four micron sections were cut, de-paraffinized and rehydrated. Antigen retrieval was performed using citrate for 4 min in a pressure cooker. Slides were blocked using 2.5% normal goat serum for 30 min then incubated in primary antibody for 1 hr followed by secondary antibody mouse anti-rabbit alexa 488 (1:1000) for 30 min. Slides were rinsed in PBS, air dried, and coverslipped using Dako mounting media with Dapi.

Experiment [6] deals with human RCC and MPN cell lines. Briefly: Growth effect of treatment in RCC and MPN cell lines. In kind it is cell-based. As to conditions: multiple human RCC and MPN cell lines.
The test system of experiment [7] is ACHN cells. The experiment can be described thus: High content imaging screen of 116 small molecule inhibitors for p62 and pS6. Conditions: HCI screen, 72 hr. It counts as cell-based, human. An excerpt:
We used a metastatic human RCC cell line, ACHN. Small molecule inhibitors have been extensively used in RCC over the last decade. […] Importantly, p62 is an autophagy substrate that is degraded along with its cargo, and so is expected to decrease with induction of autophagy. Therefore, we monitored p62 steady-state levels as an initial screen of autophagy flux. Next, we combined the measurement of the p62 with a measurement of mTORC1 activity an independent readout to evaluate autophagy. mTORC1 plays the central role in the anabolic process by increasing protein content through ribosomal biogenesis and elongation of protein translation. Specifically, mTORC1 induces mRNA translation by inducing the activation of p70S6 kinase and the subsequent phosphorylation of the S6 ribosomal protein. To ensure increased cellular biomass, mTORC1 downregulates autophagy. We chose the phosphorylation status of the downstream target of mTORC1 signaling, ribosomal S6 (hereafter S6) as a readout for mTORC1 activity.
To provide a straightforward method for detecting the induction of autophagy, we monitored ACHN cells for small molecule inhibitors which decreased the antibody labelled levels of p62 protein and pS6 phosphorylation (see methods below for detailed experiment procedure). To that end, automated high content imaging (HCl) microscopy was used to detect induction of autophagy as documented by the […] by p62 protein expression and mTORC1 inhibition by the decrease in S6 phosphorylation. The HCl assay was optimized for 384-well plate screening. Drug screening plates were designed and created as previously described.
A 7-point dilution series of 116 small molecule inhibitors covering a 1000× concentration range were plated into three, 384-well plates using the EP Motion automated dispensing system. Control wells with equal volumes of DMSO were included as negative controls. ACHN cells were grown, trypsinized counted, and plated directly into warm drug plates using Multidrop combi dispenser. Plates were incubated for 72 hr and subsequently imaged on the Olympus ScanR Platform at 10× magnification performing 4 images per well in 384 well plates. Single-cell nuclear and cytoplasmic fluorescent intensities were calculated using the Olympus ScanR Analysis Software: the DAPI-positive region of each cell was used as a boundary to quantitate nuclei counts for analysis of cell growth and integrated nuclear DNA staining intensity was used for cell cycle analysis. A 10-pixel extension of the nuclear region (and not including the nuclear region) was used to quantitate cytoplasmic signal of immunofluorescent staining of p62 protein and phosphorylation of S6. Mean signal intensity of each marker in all cells per well was used as the metric for cytoplasmic marker expression (average intensity of pS6 and p62). Unsupervised hierarchical clustering was used to identify compounds that produced similar pS6 and p62 dose response phenotypes after treatment.

Experiment [8] concerns glycolysis. Briefly: Glucose uptake and lactate excretion as readouts for glycolysis. In kind it is cell-based, human. As to conditions: in vitro. The text has this:
The PI3K-AKT-mTOR pathway regulates multiple steps in glucose uptake and metabolism.

On to `N#CCNC(=O)c1ccc(-c2ccnc(Nc3ccc(N4CCOCC4)cc3)n2)cc1` [CYT387], for which the “phosphorylation of JAK and STAT3” value in experiment [1] is “effective in suppressing the phosphorylation of JAK and STAT3”. Further, the LD numbers entry in experiment [2] is given as “significantly increase LD numbers”. For the same compound, the “clinical effect in MPN patients” value in experiment [3] is “improved splenomegaly and reduced anemia”. Besides, the ECAR result in experiment [4] is given as “significantly reduced the ECAR”. Moreover, the “LCB expression and phosphorylated S6 levels” value in experiment [5] is “significantly induced LCB expression while simultaneously reducing phosphorylated S6 levels”. In addition, the “effect of treatment on cell growth” value in experiment [6] was “primarily cytostatic”. Further, in experiment [7], the S6 phosphorylation entry is reported as “potently inhibited S6 phosphorylation” and the “induction of autophagy / autophagic flux” value is on record as “potent inducers of autophagic flux”. The glucose uptake entry in experiment [8] (18FDG) was “significantly decreased glucose uptake”. For the same compound, the lactate production result in experiment [8] (culture media) is “reduced lactate production”.
